Laboratory results as given in US20220395500A1, “SMALL MOLECULE ACTIVATORS OF INTERFERON REGULATORY FACTOR 3 AND METHODS OF USE THEREOF” (Neuralexo, Inc., priority 2020, published 2022).
Like-named read-outs stand apart in the source and are kept apart here.

Columns and labels:
[1] = system: IRF-Lucia luciferase reporter (ISRE) in THP1-Dual cells; assay: THP1-Dual IRF-Lucia luciferase reporter assay (ISRE activation); format: cell-based, human; details: THP1-Dual; for EC50: Homo sapiens, 8-point dose response
Outline: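 Supernatant luminescence from the ISG54/ISRE-driven Lucia reporter was measured after 24 h exposure to 10 μM compound (LPS 313 ng/mL in control wells).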

[2] = J774-Dual cytotoxicity; format: cell-based, mouse; details: mouse, J774-Dual cells, read-out: J774 cytotox CC50
Outline: (§1)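 CC50 derived from 8-point concentration series in mouse J774-Dual reporter cells, with viability read by CellTiter-Glo in the same plate. Run in parallel with EC50 and ISRE:NFκB ratio determination for cross-species confirmation.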

[3] = system: THP1-Dual cells; assay: THP1-Dual cytotoxicity (Cell Titer Glo, ATP); format: cell-based, human; details: Human Reporter Cell Line; read-out: Thp1 cytotox CC50
Outline: (§2)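 CC50, the concentration killing half the cells, was derived from ATP-dependent CellTiter-Glo luminescence. Cells were THP1-Dual (human) and compound was tested as an 8-point dose-response series, with viability read in the same plate.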

[4] = system: NF-κB-SEAP reporter in J774-Dual cells; assay: J774-Dual NF-κB-SEAP reporter assay; format: cell-based, mouse; details: Mus musculus, read-out: J774 NFkB EC50
Description: First, optimal assay conditions and assay quality in 384-well format were determined. As mentioned, the mouse macrophage J774 cell line (J774-Dual, InvivoGen) stably transfected with the same inducible reporters described above (e.g., IRF-Lucia luciferase and NF-κB-SEAP) was used. The responsiveness of the J774-Dual cell line was investigated in an array of assay conditions to obtain sensitive and reproducible results for the activation of the IRF and NF-κB reporters. An optimal plating density and conditions for these cells was established for these cells in a 384-well format. Assay work-flow is similar to that discussed above for the THP1-Dual assay without a need for cell differentiation. Thus, cells are seeded directly in growth medium and incubated at 37° C. in a 5% C02 incubator for 24 hours prior to the programmed treatments being added as described herein.
The primary high throughput screen used the HTS platform of human THP1 monocyte cells containing the IRF-Lucia luciferase and NFκB-SEAP (secreted embryonic alkaline phosphatase) dual reporter (THP1-Dual, Invivogen), enabling the simultaneous study of the IRF and NFκB signaling pathways respectively. As discussed, the Lucia luciferase reporter gene is under the control of an ISG54 (interferon-stimulated gene) minimal promoter in conjunction with five interferon-stimulated response elements (ISRE). The SEAP gene is driven by an IFNβ minimal promoter fused to five copies of the NFκB consensus transcriptional response element and three copies of the c-Rel binding site. Both IRF-Lucia luciferase and NFκB-SEAP reporter proteins are secreted and readily measurable in the cell culture supernatant when using QUANTI-Luc™ and QUANTI-Blue™ detection reagents, respectively. Identified “hits” were confirmed in a secondary screen with an 8-point dose response curve. Hits were further screened for activity in the mouse using the mouse J774 macrophage-like cell line containing the identical reporter constructs (J774-Dual, Invivogen).
The OTRADI Small Molecule Library of approximately 246,000 diverse compounds (see below for description) was screened using the THP1-Dual based HTS platform described above. All transfer steps in the screen are fully automated, thus reducing variability. Primary screening included a single data point or dose for each molecule. After data normalization was applied for each assay run, “hit” selection was performed on the plates that pass the quality control (QC) criterion. Hits were defined as samples having values above the activity cutoff determined based on noise level of the assay to reduce false positive rates. In the pilot study discussed above this activity value was >3σ above the ISRE mean with the added criteria of NFκB activation being lower than […] from the mean to identify IRF selective compounds. The ratio of ISRE:NFκB activity was also calculated as a selectivity index for prioritizing hit selection. Primary hits underwent secondary screening to determine the 50% effective concentration (EC50) and 50% cytotoxic concentration (CC50) of these agents using an 8-point dose-response curve in the human THP1-Dual cells. Cytotoxicity was measured in the plate using Cell Titer Glo (Promega). Identified candidate compounds were further screened (orthogonal screen) for cross species activity in the validated mouse J774-Dual assay using an 8-point dose-response format to determine EC50 and CC50 values as well as ISRE:NFκB ratios. A general process flow for the experimental design laid out above is depicted at FIG. 12.

[5] = system: NF-κB-SEAP reporter in THP1-Dual cells; assay: THP1-Dual NF-κB-SEAP reporter counterscreen; format: cell-based, human; details: Homo sapiens, THP1-Dual, read-out: THP1 NFkB EC50
Description: THP1 Dual (InvivoGen) cell suspensions were cultured in RPMI 1640 (Hyclone, Logan, Utah) supplemented with 10% fetal bovine serum (Hyclone), 100 U/mL Normocin (Invivogen), and 50 U/mL PenStrep (Gibco, Dublin, Ireland) between a density of 7·10^5-2·10^6 cells/mL. Every other passage, media was supplemented with 5 U/mL Blasticidin and 100 U/mL Zeocin to maintain the expression constructs. White, flat-bottom 384-well plates (Greiner, Kremsmunster, Austria, 781080) were seeded with 2.5·10^4 cells/well in a total of 50 μL media containing 5 ng/mL phorbolmyristic acid (PMA) using a Matrix WellMate (Thermo Scientific) dispenser. After 48 hours of incubation at 37° C., media was removed using a BioTek ELx405 CW plate washer set to aspirate and wash each well three times with 65 μL 1×PBS. Plates were reloaded with 50 μL media without PMA and treatments added. Lipopolysaccharide in dimethylsulfoxide (DMSO) was transferred to control wells using a HP D300 microdispenser to a final concentration of 313 ng/mL. Compounds from chemical library plates were copied using a Sciclone (Caliper LifeSciences) mounted with a 384-pin transfer tool to obtain a final concentration of 10 μM. After incubation with treatments for 24 hours, 10 μL of supernatant media from each well was transferred into a white, flat-bottom 384-well plate for luminescence readout and a black-walled, clear flat-bottom 384-well plate for absorbance readout.
Specifically, to enable screening of novel chemical entities (NCEs) in a larger screening effort, a robust high-throughput cell-based assay system for primary hit identification of ISRE activators based on the above-mentioned target validation was desired. Human ISRE activity was verified using a THP-1 monocyte line containing the NF-κB-SEAP and IRF-Lucia luciferase dual reporter (THP1-Dual; Invivogen) that features two reporter genes, SEAP (secreted embryonic alkaline phosphatase) and Lucia luciferase, thereby enabling the simultaneous study of the NF-κB and IRF signalling pathways. The Lucia luciferase reporter is under the control of an ISG54 (interferon-stimulated gene) minimal promoter in conjunction with five IFN-stimulated response elements. The SEAP gene is driven by an IFN-β minimal promoter fused to five copies of the NF-κB consensus transcriptional response element and three copies of the c-Rel binding site. Both reporter proteins are readily measurable in the cell culture supernatant when using QUANTI-LUC™ and QUANTI-Blue SEAP detection reagents.
Using the experimental design and data analysis outlined above, optimized assay conditions were obtained. The responsiveness of the human THP-1 Dual cell line was evaluated in an array of assay conditions to obtain sensitive and reproducible results for the activation of IRF and NF-κB reporters. An optimal plating density and differentiation protocol for these cells was established in a 384-well format. All transfer steps are fully automated using high throughput robotic equipment. Briefly, cells are seeded in differentiation medium using a Matrix WellMate fitted with the WellMate Stacker (Thermo Scientific) and incubated at 37° C. with 5% CO2 for 48 h. Following differentiation, cells are washed using a BioTek ELx405 Select CW plate washer and growth medium added with the Matrix WellMate. Programmed control treatments are added to wells using a D300 digital dispenser fitted with T8+ dispense heads (Hewlett Packard) designed to dispense nanoliter quantities of material. Compounds from library plates are added using a pin tool fitted to a Sciclone ALH 3000 Workstation (Caliper Life Sciences) programmed with Maestro v4.4. After treatment, plates are returned to incubators for 24 hours. To measure reporter expression, supernatant is collected using the Sciclone and dispensed into 2 plates: 1) a white 384-well assay plate for Lucia luminescence measurements and 2) a clear-bottom black 384-well assay plate for SEAP absorbance measurements. […]

[6] = THP1-Dual cytotoxicity (Cell Titer Glo, ATP); format: cell-based, human; details: human, THP1-Dual cells
Outline: as §2

[7] = system: J774-Dual cells; assay: J774-Dual cytotoxicity; format: cell-based, mouse; details: Mouse Reporter Cell Line; read-out: J774 cytotox CC50
Outline: as §1

[8] = system: IRF-Lucia luciferase reporter (ISRE) in J774-Dual cells; assay: J774-Dual IRF-Lucia luciferase reporter assay (ISRE activation); format: cell-based, mouse; details: J774-Dual
Outline: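 Eight-point dose-response in J774-Dual mouse macrophage-like cells gave EC50, plus CC50 by in-plate CellTiter-Glo, and ISRE:NF-κB ratios. Cells plated 24 h at 37 °C, 5% CO2 without differentiation; supernatant Lucia luciferase and SEAP measured with QUANTI-Luc and QUANTI-Blue.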

[9] = system: SH-SY5Y cells; assay: Gene induction in SH-SY5Y cells (qtPCR); format: cell-based, human; details: 20 μM, 3 hours, preliminary results
Description: FIG. 11 is a bar graph showing that the human-specific IRF activator AV-C induces robust IFIT1 and RSAD2 expression, with no increase in TNF expression. SH-SY5Y cells were treated with 20 μM AV-C for 3 hours. RNA was collected from cell pellets and qtPCR was performed with indicated primers. Values at FIG. 11 are normalized to actin and presented as fold change over vehicle control.
To determine if the human specific IRF activator, AV-C could induce IRF activated genes, the human neuroblastoma cell line SH-SY5Y was stimulated with 20 μM AV-C for 3 hours. […] Specifically, as mentioned, SH-SY5Y cells were treated with 20 μM AV-C for 3 hours. RNA was collected from cell pellets and qtPCR was performed with indicated primers. Values at FIG. 11 are normalized to actin and presented as fold change over vehicle control.

Compound `O=C(Nc1ccc(N2CCN(C(=O)c3ccccc3Cl)CC2)cc1)c1ccc(OCc2ccccc2)cc1` [NA-50] has an EC50 ([1]; Human Reporter Cell Line, read-out: THP1 IRF EC50) of about 2.5 µM, a CC50 ([2]; Mouse Reporter Cell Line) of over 25 µM and a CC50 [3] of 13.1 µM.

In the case of `CCCN(CCC)C(=O)C1=Cc2ccc(-c3ccc(C(=O)N4CCCC4)cc3)cc2N=C(N)C1` [ND-88], the EC50 ([4]; J774, Mouse Reporter Cell Line J774) is reported as 0.72 µM, the EC50 ([5]; Human Reporter Cell Line THP1) is reported as 1.72 µM and the CC50 ([2]; Mouse Reporter Cell Line J774) is reported as over 25 µM. For the same compound, the CC50 ([6]; Human Reporter Cell Line THP1, read-out: Thp1 cytotox CC50) was over 25 µM.

`O=C(Nc1ccc(N2CCN(C(=O)c3ccccc3Cl)CC2)cc1)c1ccc(OCc2ccccc2)cc1` [NA-49] showed a CC50 [7] of over 25 µM and a CC50 [3] of 27.9 µM.

`CCCCOc1nc(N)c2c(n1)N(Cc1cccc(CN3CCCC3)c1)CC(=O)N2` [NA-63] showed an EC50 ([4]; J774, Mouse Reporter Cell Line, 8-point dose response) of 2.77 µM, an EC50 ([5]; Human Reporter Cell Line, 8-point dose response) of 2.94 µM and a CC50 ([2]; Mouse Reporter Cell Line) of 73.9 µM.

With `CC(C)c1nnc(N2C(=O)c3oc4ccccc4c(=O)c3C2c2ccccc2F)s1` (stereo not drawn) [AV-C, 1-(2-fluorophenyl)-2-(5-isopropyl-1,3,4-thiadiazol-2-yl)-1,2-dihydrochromeno[2,3-c]pyrrole-3,9-dione, reference compound] the EC50 ([1]; THP1-Dual control compound, read-out: EC50 ISRE activation) was 5.3 µM, the “ISRE response, % of LPS maximum” value ([1]; 25 μM) was 75% and the “IRF signal intensity relative to LPS control” value ([1]; at its EC50) was about 10%. For the same compound, the “IRF activation in mouse cells” value [8] was “minimal IRF activation”, the “ISRE response, % of LPS maximum” value ([8]; 25 μM) was 10% and the “IFIT1 and RSAD2 expression” value [9] was “increased”. The TNF expression [9] was “no increase”, the CC50 ([6]; THP1-Dual control compound, 8-point dose response, read-out: CC50) was 7.9 µM and the selectivity ratio ([6]; read-out: Selectivity Index (CC50/EC50) (text: toxicity index)) was 1.5.
